This assay deals with T1, MeCP2-TBL1 interaction (MeCP2-SmBiT / TBL1-LgBiT) (Mus musculus, UniProt Q9QXE7).
T1 construct: expressed in transfected cells; crude lysate used as a cell-free assay
T1 sequence (Q9QXE7 166-527): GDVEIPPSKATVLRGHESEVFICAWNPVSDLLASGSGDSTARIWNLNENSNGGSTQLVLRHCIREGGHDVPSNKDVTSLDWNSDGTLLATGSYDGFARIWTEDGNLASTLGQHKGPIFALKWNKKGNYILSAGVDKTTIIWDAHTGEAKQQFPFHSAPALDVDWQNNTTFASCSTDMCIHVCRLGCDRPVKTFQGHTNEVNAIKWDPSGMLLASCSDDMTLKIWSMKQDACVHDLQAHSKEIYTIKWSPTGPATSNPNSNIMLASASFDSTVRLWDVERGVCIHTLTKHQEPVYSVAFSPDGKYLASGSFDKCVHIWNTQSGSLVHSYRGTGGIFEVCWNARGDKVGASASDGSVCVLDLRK
The experiment in a line: MeCP2-TBL1 NanoLuc luciferase complementation assay (cell-free, extracts of transfected HEK293 cells). In kind it is binding, human. The source says: To facilitate the discovery of inhibitors of the interaction between MeCP2 and TBL1/TBLR1, we set out to devise a simple and scalable biochemical assay for measuring the interaction between these two proteins. We initially explored the possibility of screening compound libraries using a previously established fluorescence polarization assay that depends on purified recombinant TBL1/TBLR1[26]. […] The resulting luminescence signal depends on the affinity between the two interacting proteins of interest (Fig. 1A). This method was originally developed to allow for the interrogation of protein–protein interactions in vivo. However, in order to facilitate large scale screening of chemical libraries, we adapted the assay for use as a cell-free system.
We fused the large N-terminal fragment of NanoLuc (LgBiT) to the C-terminus of the WD repeat domains of both TBL1 and TBLR1, and the small C-terminal fragment of NanoLuc (SmBiT) to the C-terminus of the C-terminal half of MeCP2 (Fig. 1B and C). This region of MeCP2 contains the NID (NCoR interaction domain)—the motif in MeCP2 that binds to TBL1/TBLR1.
The AgeI-NotI restriction fragment (encoding EGFP) was then replaced with a codon optimized SmBiT sequence to yield the MeCP2-SmBiT expression plasmid. The TBL1-LgBiT expression vector was derived from a TBL1-mCherry plasmid[25] by replacing the AgeI-NotI restriction fragment (encoding mCherry) with a codon optimized LgBiT sequence. SmBiT-PRKACA and LgBiT-PRKAR2A plasmids are commercially available (Promega, N203 and N204).
Cells were harvested after 24 h and cell pellets were stored at − 80 °C.
In the screens described here, the lysate obtained from a single 15 cm plate was used for 2.5 384-well assay plates. NanoLuc substrate (furimazine) (Promega, N1110) was diluted 1000-fold in passive lysis buffer (Promega, E1941) and added 1:1 to the lysate. Screening libraries were purchased from Asinex[40] and ApexBio (FDA-approved Drug Library, L1021). Compounds were dispensed using an Echo acoustic dispenser and tested at a final concentration of 20 µM in a total assay volume of 20 μl in 384-well plate format. DMSO was added to each well at a final concentration of 0.2% (v/v) and wells containing only DMSO were used as negative control. After 30 min incubation at room temperature, luminescence was measured on a Tecan M1000 multi-mode plate reader. Raw luminescence reads from each well on each plate were normalized to the median luminescence signal for that plate. In the ApexBio screen, the scaled and normalized PKA signal for each compound was subtracted from the MeCP2-TBL1 signal for the same compound. After plate normalization the robust SSMD (SSMD*) was calculated as described elsewhere. A threshold of SSMD* ≥ 3 was applied for discerning primary hits.
Assays were performed as described above except instead of a single concentration, a threefold serial dilution ranging from 60 to 0.03 μM was tested in triplicate for each of the compounds. Half-maximal inhibitory concentrations were calculated using global nonlinear regression by fitting the response data sets of all compounds simultaneously with a four-parameter logistic curve of log inhibitor concentration versus normalized luminescence using GraphPad Prism. During fitting, the maximum and minimum curve values were shared between the data sets.

Where [1] appears, read: primary screen of the Asinex library, sheet "Sargen output Asinex library", one well per compound, Batch Ref. 1.
Setting [2] is: primary screen of the Asinex library, sheet "Sargen output Asinex library", one well per compound.
The mark [3] stands for this setting: primary screen of Asinex library, single well per compound.

Inhibition percent data for 50 compounds are collected here from PMC9995496, “A screen for MeCP2-TBL1 interaction inhibitors using a luminescence-based assay” (Scientific Reports, 2023).

Consider `CC(C)(C)OC(=O)Nc1cc(-c2c[nH]nc2C2CCCCN2C(=O)OC(C)(C)C)ccn1` (centres unmarked) [BDD_27845058], for which, under setting [1], the Inhibition percent turned out to be 10.59%.

Regarding `CCOc1ccccc1NC(=O)N(C(C)c1ccccc1)C1CCn2c1nc1ccccc1c2=O` (centres unmarked) [BDD_27845157], under setting [2], the Inhibition percent was -3.22%.

In the case of `O=C(c1ccccn1)N1CCCC1c1cccc(Cc2ccc(C(F)(F)F)cc2)n1` (centres unmarked) [BDD_27852665], the Inhibition percent under setting [1] is -2.94%.

In the case of `COc1cccc(Cc2cccc(C3CCCN3C(=O)Cc3ccncc3)n2)c1` (centres unmarked) [BDD_27854270], under setting [2], the Inhibition percent is recorded as -2.15%.

As for `COc1ccccc1Cc1cccc(C2CCCN2C(=O)Cc2c[nH]c3ccccc23)n1` (centres unmarked) [BDD_27856210], the Inhibition percent under setting [1] is 9.99%.

Take `NC(=O)c1cccc(-c2nccnc2C2CCCN(CCCc3ccccc3)C2)c1` (centres unmarked) [BDD_27892119]: the Inhibition percent under setting [2] was -1.40%.

On to `NC(=O)c1cccc(-c2nccnc2C2CCCN(C(=O)COc3ccc(F)cc3)C2)c1` (centres unmarked) [BDD_27905103], for which the Inhibition percent under setting [3] is listed as -2.79.

Turning to `COc1ccc(CCC(=O)N2CCCC(c3cncc(-c4cccc(OC)c4)n3)C2)cc1` (centres unmarked) [BDD_27924033], the Inhibition percent under setting [1] turned out to be 11.34%.

For the compound `Cc1cc(Nc2cccc(C3CCCN(C(=O)C4CCCCN4C(=O)OC(C)(C)C)C3)n2)[nH]n1` (centres unmarked) [BDD_30366487], under setting [1], the Inhibition percent amounted to 3.82%.

For `CNCc1cc(NC)nc(C2CCCN2C(=O)c2cccc(Oc3ccccc3)c2)n1` (centres unmarked) [BDE_23425118], the Inhibition percent under setting [1] is on record as -0.41%.

Turning to `CC(=O)N(C)Cc1cc(N(C)C)nc(C2CCCN2C(=O)Cc2ccc3c(c2)CCCC3)n1` (centres unmarked) [BDE_23426204], the Inhibition percent under setting [2] is on record as -14.24%.

For the compound `CN(Cc1cc(N(C)C)nc(C2CCCCN2)n1)C(=O)c1ccccc1-c1ccccc1` (centres unmarked) [BDE_23459438], under setting [1], the Inhibition percent is reported as -3.75%.

`Cc1ccc(CC(=O)N2CCCC(c3ncccc3C(=O)NCc3ccccc3)C2)cc1C` (centres unmarked) [BDE_24458967]: the Inhibition percent under setting [2] is reported as -0.34%.

Turning to `Cc1nn(C)cc1C(=O)N1CCCCC1c1ncccc1C(=O)NCc1ccccc1` (centres unmarked) [BDE_24469941], the Inhibition percent under setting [3] is reported as -0.10.

Regarding `O=C(NCc1ccccc1)c1cccnc1C1CCCCN1CC(=O)N1CCNC1=O` (centres unmarked) [BDE_24470675], the Inhibition percent under setting [1] was -2.87%.

In the case of `Cc1ccccc1OCCN1C(=O)CCc2c(C)nc(CN(C)C(=O)C3CCCC3)nc21` [BDE_24687458], the Inhibition percent under setting [1] was -1.66%.

In the case of `Cc1nnc(N2CCC(C3CC=CCN(Cc4ccc(F)cc4)C3=O)CC2)c2ccccc12` (centres unmarked) [BDE_24723072], the Inhibition percent under setting [1] was -0.22%.

Take `COCCNC(=O)CN1CCCC1c1nc(C)c2c(n1)N(Cc1ccccc1)C(=O)CC2` (centres unmarked) [BDE_24735834]: the Inhibition percent under setting [3] is -1.63.

Consider `Cc1nc(C2CCN(C(=O)C3CCCC3)CC2)nc2c1CCC(=O)N2CCc1ccccc1` [BDE_24748773], for which the Inhibition percent under setting [1] is recorded as -0.38%.

In the case of `O=C(NCCc1ccc(Cl)cc1)C1(Cc2cc(-c3ccccc3)no2)CCCO1` (centres unmarked) [BDE_24757019], the Inhibition percent under setting [2] turned out to be 8.09%.

Consider `CC1CCN(C(=O)CN2CCC(C3CCCCN(CCc4ccccc4)C3=O)CC2)CC1` (centres unmarked) [BDE_25214814], for which the Inhibition percent under setting [2] is -2.53%.

With `Cc1c(C(=O)N2CCC(C3(C)CCCCN(CCc4ccccc4)C3=O)CC2)cnn1C` (centres unmarked) [BDE_25215150], the Inhibition percent under setting [1] is given as -0.77%.

Consider `CC(=O)N1CCc2nc(C3CCCN(C)C3)nc(NCCCc3ccccc3Cl)c2C1` (centres unmarked) [BDE_25356631], for which the Inhibition percent under setting [2] was 2.24%.

As for `CC(=O)N1CCC(c2nc3c(c(NCCOc4cccc(C)c4C)n2)CN(C)CC3)CC1` [BDE_25367865], the Inhibition percent under setting [2] is reported as 1.06%.

With `CC(=O)N1CCc2nc(C3CCN(C)CC3)nc(NCCCN(C)c3ccccc3)c2C1` [BDE_25368265], the Inhibition percent under setting [2] was -2.49%.

Turning to `COCCc1ncc(CN2CCCC2c2cc(Cc3cccc(OC)c3)cc(C)n2)cn1` (centres unmarked) [BDE_25403133], under setting [1], the Inhibition percent is recorded as -4.16%.

Consider `COc1ccc(Cc2ccc(C3CCCN3C(=O)CCn3ncc4ccccc43)nc2)cc1` (centres unmarked) [BDE_25650039], for which the Inhibition percent under setting [1] came to 3.10%.

With `O=C(Cc1c[nH]c2ccccc12)N1CCC2(CC=CCN(Cc3ccc(F)cc3)C2=O)CC1` [BDE_25848651], under setting [2], the Inhibition percent is recorded as -0.14%.

Consider `COCCN1CC=CCC2(CCN(CC(=O)N(Cc3ccccc3)C(C)C)CC2)C1=O` [BDE_25851451], for which, under setting [2], the Inhibition percent is given as -2.37%.

As to `Nc1nc(-c2ccccc2)nc2nc(C3CCCN(C(=O)COc4ccccc4)C3)ccc12` (centres unmarked) [BDE_26160293], the Inhibition percent under setting [1] is given as -0.81%.

Turning to `Cc1cc(CCCC(=O)N2CCCC2c2cccc(Nc3nncs3)n2)ccc1F` (centres unmarked) [BDE_26594959], the Inhibition percent under setting [1] is recorded as 1.13%.

For the compound `CNc1nc(C2CCCNC2)nc2c1CCN(C(=O)C1(Oc3ccccc3)CCCCC1)C2` (centres unmarked) [BDE_26713143], under setting [3], the Inhibition percent is given as -1.93.

Consider `CN(C)c1ncc(-c2cccc(F)c2)c(C2CCCCN2C(=O)COc2ccccc2)n1` (centres unmarked) [BDE_26725534], for which the Inhibition percent under setting [1] came to 34.22%.

Turning to `COc1cccc(CC(=O)N2CCC(c3nc(N(C)C)ncc3-c3ccccc3F)CC2)c1` [BDE_26728718], the Inhibition percent under setting [1] is reported as 20.50%.

For the compound `Cc1nc(C2CCCN2C(=O)c2ccncc2)nc2c1CCC(=O)N2CCc1ccccc1` (centres unmarked) [BDE_26909882], the Inhibition percent under setting [2] is -1.75%.

As to `O=C(c1ccccn1)N1CCCC1c1cc(CCOc2cccc(C(F)(F)F)c2)[nH]n1` (centres unmarked) [BDE_27113075], the Inhibition percent under setting [2] was -1.96%.

In the case of `CN(CCC(=O)N1CCCC1c1cncc(Cc2cccc(Cl)c2)n1)Cc1cccnc1` (centres unmarked) [BDE_27213557], the Inhibition percent under setting [2] is -2.00%.

In the case of `O=C(CCCNc1ncccn1)N1CCCC1c1cncc(Cc2cccc(Cl)c2)n1` (centres unmarked) [BDE_27217604], the Inhibition percent under setting [2] is reported as -3.79%.

In the case of `Cc1nc(C2CCN(C(=O)c3cccnc3)CC2)nc2c1CCCN2CCc1ccccc1` [BDE_27576245], the Inhibition percent under setting [1] is reported as -0.64%.

Consider `Cc1nc2c(c(Nc3ccccn3)n1)CCN(C(=O)C1CCCCN1C(=O)OC(C)(C)C)C2` (centres unmarked) [BDE_27755327], for which, under setting [1], the Inhibition percent is on record as -1.68%.

Consider `Cc1cc(C2CCCN(Cc3ccc(-c4ccccc4C(=O)O)o3)C2)ccn1` (centres unmarked) [BDE_30686588], for which the Inhibition percent under setting [2] came out at 6.28%.

In the case of `O=C(O)c1ccccc1-c1ccc(CN2CCCC2c2ccncn2)cc1` (centres unmarked) [BDE_30687637], the Inhibition percent under setting [1] was -2.12%.

Consider `Cc1nccc(C2CCCN2Cc2ccc(-c3ccccc3C(=O)O)cc2)n1` (centres unmarked) [BDE_30687639], for which, under setting [2], the Inhibition percent is listed as -0.80%.

On to `CNc1cccc(C2CCCN2Cc2ccc(-c3ccccc3C(=O)O)cc2)n1` (centres unmarked) [BDE_30687673], for which the Inhibition percent under setting [2] is -2.37%.

Regarding `O=C(Cn1ncc2ccccc2c1=O)N1CCCCC1c1ncc(Cc2ccccc2F)o1` (centres unmarked) [BDE_33507923], under setting [1], the Inhibition percent was 3.33%.

In the case of `COc1cccc(Cc2cnc(C3CCCN(C(=O)Cn4ncc5ccccc5c4=O)C3)o2)c1` (centres unmarked) [BDE_33507930], the Inhibition percent under setting [1] is reported as -1.97%.

Turning to `O=C(Cn1ncc2ccccc2c1=O)N1CCCC(c2ncc(Cc3ccc(Cl)cc3)o2)C1` (centres unmarked) [BDE_33507934], the Inhibition percent under setting [1] came out at 0.79%.

In the case of `COc1ccccc1Cc1cnc(C2CCCN(C(=O)c3cc(-c4ccc(F)cc4)no3)C2)o1` (centres unmarked) [BDE_33509516], the Inhibition percent under setting [1] came to 6.24%.

Regarding `O=C(O)c1ccccc1CN1CCCC(c2ncc(Cc3ccc(Cl)cc3)o2)C1` (centres unmarked) [BDE_33511194], the Inhibition percent under setting [2] was -2.52%.

On to `COc1ccccc1Cc1cnc(C2CCCN(S(=O)(=O)c3cn(C)nc3C)C2)o1` (centres unmarked) [BDE_33511387], for which the Inhibition percent under setting [1] is listed as 4.61%.
